The values below come from US12612358B2, “Resorcinol-based compounds and uses thereof” (priority 2020, dated 2026).

A short description of data set [1]: Aqueous solubility (Eurofins ADME). It is filed as physicochemical. The protocol: (§1) Evaluating ADME of Compound-5B in vitro. It is important to evaluate ADME first in culture as it allows for the selection of the best candidate for PK analysis in vivo. ADME analysis of Compound-5B was performed by Eurofins.
Data set [2] can be described thus: IV pharmacokinetics. The conditions noted are these: 1 mpk. Type of data set: in vivo.
For data set [3], the target named is T1, ADRB2 (β-Adrenergic receptor) (Homo sapiens, UniProt P07550).
T1 construct: purchased Eurofin's
Nature of the data set: SAFETY scan E/IC50 ELECT, ADRB2. The conditions noted are these: read-out: inhibition against ADRB2 (mild). Type of data set: biochemical.

In data set [4] the target is T2, DRD1 (Dopamine receptor D1) (Homo sapiens, UniProt P21728).
T2 construct: purchased Eurofin's
Nature of the data set: SAFETY scan E/IC50 ELECT, DRD1. It is filed as biochemical. The note with it: read-out: inhibition against DRD1 (mild).

The subject of data set [5] is PANC-1 tumors. The experiment in a line: PANC-1 subcutaneous xenograft in athymic nu/nu mice. Type of data set: in vivo.
Data set [6] deals with CYP450 isoforms. The experiment in a line: CYP450 isoform inhibition. Type of data set: in vitro ADME. The conditions noted are these: 1 μM. Here is the method:
as §1

Data set [7] has as its system U251 (glioblastoma). Nature of the data set: Cell proliferation, U251 glioblastoma cells. The conditions noted are these: Homo sapiens, U-251, read-out: IC50 category. It is filed as cell-based. The source says:
(§2) Effects of Compound-5B on cell proliferation in additional cancer cells: To determine whether Compound-5B would have broad based anticancer activity, we study whether Compound-5B would be effective at inhibiting cell proliferation in a variety of cancers overexpressing Id-1. The assay conditions used were identical to those presented for breast and pancreatic cancers. Indeed, Compound-5B was potent at inhibiting cell proliferation in blood cancer (leukemia), glioblastoma, prostate, and ovarian cancer.

Data set [8] has as its system PANC13. Nature of the data set: CellTiter-Glo cell proliferation, patient-derived PANC13 tumorspheres. It is filed as cell-based. The note with it: Homo sapiens, 72 h, three days treatment, read-out: IC50 category. From the text:
(§3) Effects of Compound-5B on proliferation and Id-1 expression in pancreatic cell lines. Compound-5B was next tested for inhibition of cell viability/proliferation in the three pancreatic cancer cell lines and two primary patient-derived cancer cell lines. Compound-5B inhibited cell viability/proliferation of all the cancer cell lines (Table 2). The culturing condition for the pancreatic cell lines was similar to those used in the breast cancer lines, with the exception of the primary patient-derived pancreatic cancer cell lines (PANC9 and PANC13). For determining inhibition of cell proliferation in patient-derived pancreatic cancer cells were cultured in a T75 ultra low attachment flasks with DMEM/F12 media supplemented with B27, penicillin/streptomycin (10,000 u/mL), 50 µg/mL human epidermal growth factor (hEGF), 50 μg/mL human fibroblast growth factor, and 5 μg/mL heparin. Cells were plated in a 384-well plate and incubated for three days to promote the formation of tumorspheres. Cells were then treated with Compound-5B for three days. Cell proliferation of pancreatic cells in the presence of drug was measured using the CellTiter-Glo luminescent Assay and IC50 values were calculated (Table 2). The IC50 and corresponding 95% confidence limits (CL) were calculated using non-linear regression analysis.
(In ATP-based viability assays light output follows the ATP content of the culture.)

Data set [9] has as its system Id-1. Nature of the data set: Id-1 expression in MDA-MB231 cells (Western analysis). It is filed as cell-based, human. Here is the method: (§4) Quantitative Western analysis: Cells are cultured and treated in 6-well dishes. After the cells are washed twice with cold PBS, lysis buffer is added. The cells are then lysed by freezing for 10 min at −70° C. and then thawing at ambient temperature. The cell lysate is collected and the protein content is determined by using Bradford reagent. Equal amounts of protein are heated at 90° C. in Laemmli sample buffer which also included β-mercaptoethanol. The samples are then loaded onto a precast SDS-PAGE gel (Bio-Rad Laboratories, Hercules, CA). After which, proteins are then electroblotted onto an Immobilon membrane (Millipore, Billerica, MA) overnight at 2-4° C. The membrane is then blocked for 1 hour with 5% nonfat dry milk which included TBS+Tween. The membranes are then incubated with an anti-Id-1 primary antibody, and then an appropriate secondary antibody was used. Blots are incubated for 45 min and then washed 4 times with TBS+Tween for 15 min each. […]
Effects of Compound-5B on breast cancer cell proliferation, Id-1 expression and invasion in culture. […] The ability of the cells to migrate and invade in modified Boyden chambers was determined. The percentage relative invasion was calculated as the effect on treated cells/vehicle cells×100. […]

The test system of data set [10] is PANC-1. Nature of the data set: CellTiter-Glo cell proliferation, PANC-1 pancreatic cancer cells. Type of data set: cell-based, human.
Description: Cell culture and treatment of pancreatic cancer cell lines: Pancreatic cancer cells lines BxPC-3, SW1990, and PANC-1 used in the experiments presented herein can be obtained from ATCC. The cells can be cultured and passaged in complete growth medium (RPMI-1640, Dulbecco's Modified Eagle Medium, or Leibovitz's L-15 medium) that has been supplemented with fetal bovine serum to a final concentration of 10%.
as §3

Data set [11] addresses T3, HRH2 (Histamine receptor) (Homo sapiens, UniProt P25021).
T3 construct: purchased Eurofin's
Nature of the data set: SAFETY scan E/IC50 ELECT, HRH2. Type of data set: biochemical. The conditions noted are these: read-out: inhibition against HRH2 (mild).

In data set [12] the test system is Id-1. Nature of the data set: Id-1 expression in PANC-1 cells (Western analysis). It is filed as cell-based, human. The protocol: as §4, with “each. The blots are developed with SuperSignal Femto (Pierce, Rockford, IL), and imaged on either a Fluorchem 8900 (Alpha Innotech, San Leandro, CA) or ECL Hyperfilm (Amersham-Pharmacia, Piscataway, NJ). Band intensity values are obtained (after background subtraction) directly from the […] using AlphaeaseFC software (San Leandro, CA) or from film using Image-J (NIH, MD).” for “each.”

Data set [13] relates to MDA-MB231 D3H. The experiment in a line: CellTiter-Glo viability/proliferation assay, MDA-MB231 breast cancer cells. The conditions noted are these: Homo sapiens, MDA-MB-231, 48 h; CellTiter-Glo, two-day treatment; read-out: Inhibition of MDA-MB231 D3H. Type of data set: cell-based.
Data set [14] addresses T4, hERG (Homo sapiens, UniProt Q12809).
T4 construct: purchased Eurofins
Nature of the data set: hERG channel inhibition. It is filed as biochemical. The protocol: as §1
On the technique in general: The hERG channel carries a current that helps repolarise heart muscle cells.

Data set [15] deals with Kasumi −1 (leukemia). Nature of the data set: Cell proliferation, Kasumi-1 leukemia cells. It is filed as cell-based. The conditions noted are these: Homo sapiens, read-out: IC50 category.
Description: as §2

Data set [16] has as its system MDA-MB231 cells. Nature of the data set: Invasion in modified Boyden chambers, MDA-MB231 cells. Type of data set: cell-based, human. Here is the method: Effects of Compound-5B on breast cancer cell proliferation, Id-1 expression and invasion in culture. […] The ability of the cells to migrate and invade in modified Boyden chambers was determined. The percentage relative invasion was calculated as the effect on treated cells/vehicle cells×100. Respective controls (vehicle treated cells) were set as 100%.

Data set [17] deals with T5, CYP2C8 (Homo sapiens, UniProt P10632).
T5 construct: purchased Eurofins
The experiment in a line: CYP2C8 inhibition. It is filed as in vitro ADME. The conditions noted are these: 10 μM. Here is the method:
as §1

T4 sequence (Q12809 whole entry): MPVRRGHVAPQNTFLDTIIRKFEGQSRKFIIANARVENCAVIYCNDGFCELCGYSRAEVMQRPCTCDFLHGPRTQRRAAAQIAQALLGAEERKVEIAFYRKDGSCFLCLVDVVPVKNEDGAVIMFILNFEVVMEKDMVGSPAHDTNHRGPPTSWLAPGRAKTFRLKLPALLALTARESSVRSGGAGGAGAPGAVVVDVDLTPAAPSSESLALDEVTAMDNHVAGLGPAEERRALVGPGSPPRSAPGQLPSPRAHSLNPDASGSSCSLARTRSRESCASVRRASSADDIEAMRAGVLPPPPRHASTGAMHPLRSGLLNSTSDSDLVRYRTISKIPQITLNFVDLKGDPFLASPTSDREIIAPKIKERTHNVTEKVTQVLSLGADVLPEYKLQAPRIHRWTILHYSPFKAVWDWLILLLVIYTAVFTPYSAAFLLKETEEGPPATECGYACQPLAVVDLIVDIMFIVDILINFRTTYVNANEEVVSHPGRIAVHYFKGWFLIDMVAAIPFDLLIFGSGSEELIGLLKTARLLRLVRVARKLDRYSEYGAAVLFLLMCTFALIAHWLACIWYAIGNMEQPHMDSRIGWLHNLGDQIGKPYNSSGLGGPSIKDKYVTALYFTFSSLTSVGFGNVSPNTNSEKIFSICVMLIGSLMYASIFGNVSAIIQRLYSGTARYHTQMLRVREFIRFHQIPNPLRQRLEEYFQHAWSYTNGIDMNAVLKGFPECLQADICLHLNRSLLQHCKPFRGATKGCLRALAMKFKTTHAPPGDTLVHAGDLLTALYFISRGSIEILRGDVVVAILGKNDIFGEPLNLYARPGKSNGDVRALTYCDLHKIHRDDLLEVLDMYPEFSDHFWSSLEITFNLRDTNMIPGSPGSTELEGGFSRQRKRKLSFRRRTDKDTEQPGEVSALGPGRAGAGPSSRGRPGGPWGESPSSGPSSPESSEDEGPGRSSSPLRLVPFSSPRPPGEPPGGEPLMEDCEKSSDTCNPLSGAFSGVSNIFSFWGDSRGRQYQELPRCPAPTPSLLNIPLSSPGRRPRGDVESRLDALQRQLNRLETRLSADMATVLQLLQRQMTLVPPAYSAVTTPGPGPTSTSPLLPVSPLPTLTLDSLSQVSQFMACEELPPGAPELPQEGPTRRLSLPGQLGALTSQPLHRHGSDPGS
T1 sequence (P07550 whole entry): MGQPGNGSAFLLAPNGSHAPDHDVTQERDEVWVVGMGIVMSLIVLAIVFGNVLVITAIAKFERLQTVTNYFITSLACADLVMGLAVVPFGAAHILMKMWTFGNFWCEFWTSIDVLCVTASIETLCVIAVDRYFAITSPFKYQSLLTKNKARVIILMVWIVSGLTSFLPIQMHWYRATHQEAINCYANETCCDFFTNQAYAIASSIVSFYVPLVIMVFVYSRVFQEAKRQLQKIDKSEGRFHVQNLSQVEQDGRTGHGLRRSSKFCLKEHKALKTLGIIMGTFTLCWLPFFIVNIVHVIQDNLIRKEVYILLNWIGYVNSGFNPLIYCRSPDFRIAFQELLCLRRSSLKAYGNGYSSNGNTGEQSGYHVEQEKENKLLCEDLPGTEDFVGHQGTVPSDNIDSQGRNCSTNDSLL
T2 sequence (P21728 whole entry): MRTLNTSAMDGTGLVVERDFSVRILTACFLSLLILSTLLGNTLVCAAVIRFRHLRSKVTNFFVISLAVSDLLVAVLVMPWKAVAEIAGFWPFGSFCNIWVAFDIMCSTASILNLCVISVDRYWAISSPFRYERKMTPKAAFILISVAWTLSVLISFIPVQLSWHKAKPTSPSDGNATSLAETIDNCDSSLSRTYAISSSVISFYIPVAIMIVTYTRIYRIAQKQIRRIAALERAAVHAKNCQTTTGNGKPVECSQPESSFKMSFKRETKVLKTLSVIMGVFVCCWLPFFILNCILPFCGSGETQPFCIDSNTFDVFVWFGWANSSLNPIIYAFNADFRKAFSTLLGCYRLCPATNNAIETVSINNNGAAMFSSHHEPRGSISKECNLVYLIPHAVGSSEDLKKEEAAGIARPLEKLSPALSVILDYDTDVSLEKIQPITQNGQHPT
T5 sequence (P10632 whole entry): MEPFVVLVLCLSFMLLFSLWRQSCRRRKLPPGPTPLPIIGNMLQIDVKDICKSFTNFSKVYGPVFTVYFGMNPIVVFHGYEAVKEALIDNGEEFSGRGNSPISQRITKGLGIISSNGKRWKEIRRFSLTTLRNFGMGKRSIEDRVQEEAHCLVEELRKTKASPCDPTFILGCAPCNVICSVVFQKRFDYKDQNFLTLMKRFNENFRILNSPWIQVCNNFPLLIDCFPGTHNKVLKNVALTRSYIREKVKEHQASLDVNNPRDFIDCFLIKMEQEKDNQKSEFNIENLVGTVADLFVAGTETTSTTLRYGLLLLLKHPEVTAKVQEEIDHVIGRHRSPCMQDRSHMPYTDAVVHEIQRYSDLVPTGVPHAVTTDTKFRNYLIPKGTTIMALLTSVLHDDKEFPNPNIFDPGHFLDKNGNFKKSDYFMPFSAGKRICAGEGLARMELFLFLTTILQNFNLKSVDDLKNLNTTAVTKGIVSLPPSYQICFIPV
T3 sequence (P25021 whole entry): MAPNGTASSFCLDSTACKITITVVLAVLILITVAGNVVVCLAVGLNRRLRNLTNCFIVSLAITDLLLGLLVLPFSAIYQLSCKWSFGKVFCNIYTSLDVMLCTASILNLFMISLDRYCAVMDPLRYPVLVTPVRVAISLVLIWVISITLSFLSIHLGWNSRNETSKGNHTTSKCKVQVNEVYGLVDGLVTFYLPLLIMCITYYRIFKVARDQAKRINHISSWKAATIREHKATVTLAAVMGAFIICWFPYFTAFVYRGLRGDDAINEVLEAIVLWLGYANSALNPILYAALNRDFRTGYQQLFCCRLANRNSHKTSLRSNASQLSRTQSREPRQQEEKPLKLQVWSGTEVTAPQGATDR

On to `CCCCCCC(C)(C)c1cc(O)c(C(=O)Nc2ccccc2)c(O)c1` [Compound 5B, 2,6-dihydroxy-4-(2-methyloctan-2-yl)-N-phenylbenzamide], for which the aqueous solubility result in data set [1] was “low”. In data set [2], the clearance entry is “low”. Also, the exposure result in data set [2] is listed as “good”. Further, the half-life entry in [2] is listed as “acceptable”. For the same compound, the IC50 is 640 to 750 nM in [3]; 640 to 750 nM in data set [4]; < 500 nM in data set [7]; < 500 nM in data set [8]; < 500 nM in data set [10] (Homo sapiens, PANC-1, read-out: IC50 category); 640 to 750 nM in [11]. Further, the IC50 in data set [13] and in data set [15] was < 500 nM each time. In addition, the “weight loss (metric of drug toxicity)” value in [5] (PANC-1 tumor mice, Compound-5B 10 mg/kg i.p. daily, gemcitabine 50 mg/kg i.p. three times a week) is “no significant weight loss”. In addition, the “growth of PANC-1 tumors” value in [5] (athymic nu/nu mice, 10 mg/kg i.p. once daily) is “reduced the growth of PANC-1 tumors as effectively as gemcitabine”. In [6], the “inhibition of important CYP450 isoforms” value is “does not inhibit”. In addition, the “inhibition of Id-1 expression” value in data set [9] is listed as “significant potency”; in [12] it was “able to effectively inhibit Id-1 expression”. The “improvement in potency (IC50) compared to the parent compound CBD” value in data set [10] (PANC-1 (by context)) amounted to 38 fold. In addition, the “inhibition of cardiac channel hERG” value in [14] is given as “no inhibition”. In addition, the “invasion of MDA-MB231 cells” value in [16] is on record as “inhibits the invasion”. In addition, the “inhibition of CYP2C8” value in data set [17] is “some inhibition”.
